# Assay results as given in EP1566447A1, “Glimepiride- and insulin-induced glycosylphosphatidylinositol-specific phospholipase C regulation” (priority 2004, dated 2005).
# “Also recorded” adds a separate entry of the source.
# Legend:
# bacterial PC-PLC = molecular target: T1, bacterial PC-PLC (Bacillus cereus, UniProt P09598); assay: selectivity: PC-PLC assay; type: biochemical; details: 50 µM
# T1 construct: purchased Sigma/Aldrich (Deisenhofen, Germany)
# cabbage PLD = assay: selectivity: PLD assay; type: biochemical; details: 50 µM
# Experimental: Hormone-sensitive lipase (HSL) and lipoprotein lipase (LPL) were measured using a radiolabeled triolein droplet emulsion as described in "Vertesy et al., (2002) Journal Antibiotics 55:480-494". Pancreatic lipase (PL) was determined by incubation of 0.25 mmol tributyrin in 2 ml of 5 mM Tris/HCl (pH 6.5), 6 mM sodium taurodeoxycholate, 150 mM NaCl, 1 mM CaCl2 with porcine PL and colipase in the same buffer using a recording pH stat (stirring at 1000 rpm at 25°C) with the pH adjusted to 6.5. PC-PLC was assayed by incubation of 0.2 ml of 10 mM dipalmitoyllecithin, 0.1 ml of 10 mM SDC and 0.1 ml of 0.03 M CaCl2 with bacterial PC-PLC (in 50 mM Tris/HCl, pH 7.5, 0.1 % BSA) for 10 min at 37°C. The reaction was terminated by addition of 0.1 ml of 50 % TCA and subsequently of 2.5 ml of […]. After centrifugation (1500xg, 15 min), 0.2-ml portions of the upper methanol/water phase (~ 1.33 ml) was removed, supplemented with 0.5 ml of 60 % HClO4, then heated at 170°C for 1 h and finally analyzed for inorganic phosphate. Mammalian PI-PLC was measured by incubation of 0.1 ml of 10 mM PI, 0.1 ml of 0.8 % sodium deoxycholate, 0.1 % BSA, 0.2 ml of 100 mM sodium borate (pH 7.5) and rat liver PI-PLC for 20 min at 37°C. The reaction was terminated and further processed as described for the PC-PLC. […] Radioactive phosphatidic acid was detected by phosphorimaging. […]
# [1] = molecular target: phospholipase A2 (honey bee venom) (Apis mellifera, UniProt P00630); type: biochemical; details: 50 µM
# Chain of phospholipase A2 (honey bee venom) (P00630 34-167 limits assumed): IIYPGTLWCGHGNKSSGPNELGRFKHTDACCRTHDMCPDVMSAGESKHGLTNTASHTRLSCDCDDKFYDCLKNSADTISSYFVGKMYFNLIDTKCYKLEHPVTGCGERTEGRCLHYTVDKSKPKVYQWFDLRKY
# Isolated rat adipocytes = assay: localization of lipolytically cleaved and uncleaved GPI-proteins at hcDIGs, IcDIGs and total plasma membranes; type: cell-based; details: GPI-2350 50 µM, insulin 10 nM, glimepiride 20 µM
# caveolin-1 = assay: dissociation of signaling proteins from caveolin (caveolin-1 immunoprecipitates); type: cell-based, rat
# Experimental: Solubilized DIGs (see above, 5-20 µg protein) were precleared by incubation with protein A/G-Sepharose and subsequent centrifugation (10,000xg, 5 min). The supernatant was incubated with anti-caveolin-1 antibodies (1:1000) preadsorbed on protein A/G-Sepharose in 1 ml of 10 mM Tris/HCl (pH 7.4), 150 mM NaCl, 1 % TX-100 for 1 h at 4°C. The immune complexes were washed twice with the same buffer and then twice with buffer lacking TX-1 00 and finally subjected to SDS-PAGE performed in the absence of β-mercaptoethanol. The recovery of immunoprecipitated caveolin was normalized by homologous immunoblotting with anti-caveolin antibodies of the same blot following stripping of the membrane.
# Polypeptides separated by SDS-PAGE were transferred to polyvinylidene difluoride membranes using the semidry procedure as described in "Müller, G. et al., (2001) Mol. Cell. Biol. 21: 4553-4567". Washed membranes were incubated anti-caveolin-1 (1:2000), anti-pp59^Lyn (1:1250), anti-aP (1:500), anti-5'-Nuc (1:750) and anti-IRS-1 (1:2000) antibodies for 4 h at 15°C. Washed membranes were incubated with horseradish peroxidase-coupled secondary goat anti-mouse (1:2000) or goat anti-rabbit IgG (1:4000) antibodies. Labeled proteins were visualized by enhanced chemiluminescence.
# Of signaling proteins from caveolin. […]
# [2] = relative to amphiphilic version in PM of basal adipocytes (100)
# [3] = relative to amphiphilic version in hcDIGs of basal adipocytes (100)
# T1 sequence (P09598 39-283 limits assumed): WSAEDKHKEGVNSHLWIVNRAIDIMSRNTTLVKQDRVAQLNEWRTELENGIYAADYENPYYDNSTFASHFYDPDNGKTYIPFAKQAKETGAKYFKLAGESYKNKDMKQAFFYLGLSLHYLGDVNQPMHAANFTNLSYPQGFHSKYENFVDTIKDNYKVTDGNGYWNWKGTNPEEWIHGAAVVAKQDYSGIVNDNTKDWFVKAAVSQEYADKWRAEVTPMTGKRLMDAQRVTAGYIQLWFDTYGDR
structure (smiles),measurement,setting,value
"CCCCCCCCCCCCP1(=O)O[C@@H]2[C@H](O)[C@@H](O)[C@H](O)[C@@H](O)[C@@H]2O1 (mixture of isomers) [GPI-2350, myo-inositol-1,2-cyclo-dodecylphosphonic acid]",effect on phospholipase activity,bacterial PC-PLC,not significantly affected
same,effect on phospholipase activity,cabbage PLD,not significantly affected
same,effect on phospholipase activity,[1],not significantly affected
same,5'-Nuc hydroph. PM,Isolated rat adipocytes; [2],3±2 arb. units
same,Gce1 hydroph. PM,Isolated rat adipocytes; [2],6±3 arb. units
same,aP hydroph. PM,Isolated rat adipocytes; [2],4±3 arb. units
same,5'-Nuc amphiph IcDIGs,Isolated rat adipocytes; [3],15±6 arb. units
same,5'-Nuc amphiph hcDIGs,Isolated rat adipocytes; [3],112±19 arb. units
same,5'-Nuc hydroph. IcDIGs,Isolated rat adipocytes; [3],3±1 arb. units
same,5'-Nuc hydroph. hcDIGs,Isolated rat adipocytes; [3],7±3 arb. units
same,Gce1 amphiph IcDIGs,Isolated rat adipocytes; [3],28±6 arb. units
same,Gce1 amphiph hcDIGs,Isolated rat adipocytes; [3],109±10 arb. units
same,Gce1 hydroph. IcDIGs,Isolated rat adipocytes; [3],14±7 arb. units
same,Gce1 hydroph. hcDIGs,Isolated rat adipocytes; [3],21±7 arb. units
same,aP amphiph IcDIGs,Isolated rat adipocytes; [3],19±13 arb. units
same,aP amphiph hcDIGs,Isolated rat adipocytes; [3],117±11 arb. units
same,effect on induced dissociation of pp59^Lyn and Gce1 from caveolin,"caveolin-1; 50 µM, Fig. 6 Panel A",almost complete blockade; also recorded: completely abrogated
same,IC50,"caveolin-1; abrogation of insulin- and glimepiride-induced losses, Fig. 6 Panel B",5 to 10 µM
